pIC50: −log10 of the molar value.

For orientation: pIC50 means −log10 of the IC50, conventionally taken in molar units.

Experiment [1] concerns the target T1, Thrombopoietin Receptor (TPOR) (Homo sapiens, UniProt P40238).
T1 sequence (P40238 26-491 limits assumed): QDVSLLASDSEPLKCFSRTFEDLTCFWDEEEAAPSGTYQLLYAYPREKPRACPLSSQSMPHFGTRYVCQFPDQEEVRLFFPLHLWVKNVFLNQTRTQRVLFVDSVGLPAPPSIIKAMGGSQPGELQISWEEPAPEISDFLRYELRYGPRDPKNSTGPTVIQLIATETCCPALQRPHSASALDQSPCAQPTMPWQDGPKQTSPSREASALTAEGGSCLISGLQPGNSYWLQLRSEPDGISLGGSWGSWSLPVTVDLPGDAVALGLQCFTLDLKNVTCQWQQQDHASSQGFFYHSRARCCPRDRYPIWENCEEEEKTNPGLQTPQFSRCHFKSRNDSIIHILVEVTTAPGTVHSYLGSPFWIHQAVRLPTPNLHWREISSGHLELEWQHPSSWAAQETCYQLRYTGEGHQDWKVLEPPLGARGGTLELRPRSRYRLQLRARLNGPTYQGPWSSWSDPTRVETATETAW
Conditions: TPOR binding; cysteine-containing peptides in cyclic form; cited from earlier work.

Experiment [2] relates to male C57BL/6 mice with surgically induced femoral fracture. The experiment can be described thus: Von Frey testing of evoked pain behavior after femoral fracture. The format is in vivo. The protocol: FIG. 15 is bar graphs for 12-week-old C57BL/6 male mice that underwent a surgically created fracture and received 3×/wk injection of targeted SRT1720 (SQ, 2, 6, and 20 mg/kg/dose) or vehicle control.
(§1) Weekly X-rays were used to examine healing progression. Prior to euthanasia, mice underwent behavioral testing to measure evoked pain behaviors, Upon euthanasia, ex vivo μCT imaging (FIGS. 14A-14C) and analysis was completed to assess fracture callus size and composition.

Experiment [3] shares this test system. Nature of the experiment: Surgically induced femoral fracture, X-ray and ex vivo µCT of callus. It counts as in vivo. On the procedure: FIG. 14A are representative μCT images of femurs 3 weeks post-surgery from 12-week-old C57BL/6 male mice that underwent a surgically created fracture and received 3×/wk injection of targeted SRT1720 (SRT1720-Aspartic Acid Oligopeptide described herein; SQ, 6 mg/kg/dose) or vehicle control.
FIG. 14B is a bar graph showing μCT analysis of the mineralized callus volume (BV/TV) for each treatment group ([…], 2, 6, and 20 mg/kg/dose),
FIG. 14C is a bar graph showing μtCT analysis of the callus trabecular thickness (Tb.Th) within the callus region for each treatment group.
as §1

Experiment [4] has as its system female Swiss Webster mice with midshaft femur fractures. The experiment can be described thus: Midshaft femur fracture healing, micro-CT of fracture callus. The format is in vivo. Conditions: three weeks. On the procedure: Fracture healing was assessed using micro-CT (Scanco Medical Ag or PerkinElmer). […] Morphometric parameters were quantified in an ROI that included just the fracture callus. […] Statistical analysis was performed using a one-way analysis of variance (ANOVA) and a Dunnett's post-hoc analysis with significance reported at the P value of 0.05. All animal experiments were performed in accordance with protocols approved by Purdue University's Institutional Animal Care and Use Committee (IACUC).

Setting [5] is: all doses (2, 6, 20 mg/kg, 3x/week), 3 weeks post-surgery.
The mark [6] stands for this setting: 6 mg/kg, 3x/week, 3 weeks, p<0.05.

For the molecule “IEGPTLRQWLAARA-K-β-Ala-IEGPTLRQWLAARA [AF13948]”, the negative logarithm of the IC50 (pIC50) in experiment [1] was 9.30.

As to GNADGPTLRQWLEGRRPKN [AF12359], the negative-log IC50 (pIC50) in experiment [1] was 7.18.

Turning to TIKGFTLRQWLKSREHTS [AF12405], the negative logarithm of the IC50 (pIC50) in experiment [1] was 7.30.

IEGPTLRQWLAARA [AF12505]: in experiment [1], the pIC50 is 8.70.

For the molecule GRVBDQIMLSLGG [AF12191], in experiment [1], the negative logarithm of the IC50 (pIC50) was 4.70.

For the molecule `N[C@@H](CCC(=O)O)C(=O)N[C@@H](CCC(=O)O)C(=O)N[C@@H](CCC(=O)O)C(=O)N[C@@H](CCC(=O)O)C(=O)N[C@@H](CCC(=O)O)C(=O)N[C@@H](CCC(=O)O)C(=O)N[C@@H](CCC(=O)O)C(=O)N[C@@H](CCC(=O)O)C(=O)N[C@@H](CCC(=O)O)C(=O)N[C@@H](CCC(=O)O)C(=O)N[C@@H](CSSCCOC(=O)N1CCN(Cc2csc3nc(-c4ccccc4NC(=O)c4cnc5ccccc5n4)cn23)CC1)C(=O)O` [targeted SRT1720], in experiment [2] (setting [5]), the “paw withdrawal thresholds (evoked responses to tactile stimulus)” value is recorded as “improved mN forces”.

For GGCTLREWLHGGFCGG [AF12192], the pIC50 in experiment [1] is 6.70.

Consider `O=C(Nc1ccccc1-c1cn2c(CN3CCNCC3)csc2n1)c1cnc2ccccc2n1` [SRT1720], for which the “paw withdrawal thresholds (evoked responses to tactile stimulus)” value in experiment [2] (setting [6]) was “more robust and significant improvement”; in experiment [2] (setting [5]), “increased paw withdrawal thresholds”. The bone healing result in experiment [3] (6 mg/kg, 3x/week, 3 weeks) was “accelerated bone healing”; in experiment [3] (all doses (2, 6, 20 mg/kg, 3x/week, 3 weeks)) it was “improved healing”. The mineralized callus volume in experiment [3] (setting [6]) is “significant increase in mineralized callus volume”.

Take “Ile-Glu-Gly-Pro-Thr-Leu-Arg-Gln-Npa-Leu-Ala-Ala-Arg-Sar [TMP]”: the “bone volume, dose-response shape” value in experiment [4] (untargeted TMP daily 0.1, 1 and 10 nmol s.c.) is reported as “parabolic dosing window”. For the same molecule, the “callus bone volume/total volume, dose-response shape” value in experiment [4] (untargeted TMP daily 3.3, 33 and 330 nmol/kg s.c.) is “parabolic dosing window”. For the same molecule, in experiment [4] (untargeted TMP daily s.c.), the “dose with maximum response on callus mineralization (bone volume)” value worked out at 1 nmol/day and the “dose with maximum response on callus mineralization (bone volume/total volume)” value worked out at 33 nmol/kg.

For the molecule LAIEGPTLRQWLHGNGPDT [AF12434], the pIC50 in experiment [1] was 7.70.

On to GGCADGPTLREWISFCGG [AF12193], for which, in experiment [1], the pIC50 was 7.22.

These data come from patent US20240156973A1, “OSTEOTROPIC COMPOSITIONS AND USES THEREOF” (Purdue Research Foundation, priority 2021, published 2024).
